# Reference: patent US12049543B2, “Copolymer containing cyclic nitroxide radical and trialkoxysilyl in side chain, and use thereof” (CrestecBio Inc., priority 2017, dated 2024)
# Tested on: TWNT-1 (CVCL J364) hepatic stella cells
# Settings: incubation 2 days
# Excerpt: In the case of this assay kit, it is necessary to note that, although the sorafenib@siRNP can be dissolved in phosphate-buffered saline (PBS), free sorafenib is required to be dissolved in dimethylsulfoxide (DMSO).
compound,measurement,value
CNC(=O)c1cc(Oc2ccc(NC(=O)Nc3ccc(Cl)c(C(F)(F)F)c3)cc2)ccn1 [sorafenib],inhibition of proliferation of TWNT-1,inhibits the proliferation of TWNT-1
